Like-named read-outs stand apart in the source and are kept apart here.
Assays:
Type in all cases: in vivo
Pyricularia = details: rice
Pyricularia oryzae = details: rice, protective, evaluation 4 days after inoculation
[1] = tested on: Erysiphe graminis f.sp. hordei; test: Erysiphe test (barley)/protective; details: protective, application rate 50 g/ha, evaluation 7 days after inoculation
Method: Erysiphe test (barley)/protective
Solvent: 50 parts by weight of dimethylformamide
Emulsifier: 1 part by weight of alkylaryl polyglycol ether
To produce a suitable preparation of active compound, 1 part by weight of active compound or a combination of active compound is mixed with the stated amounts of solvent and emulsifier, and the concentrate is diluted with water to the desired concentration, or a commercial formulation of active compound or active compound combination is diluted with water to the desired concentration.
To test for protective activity, young plants are sprayed with the preparation of active compound at the stated application rate.
1 day after the treatment, the plants are dusted with spores of Erysiphe graminis f.sp. hordei.
The plants are placed in a greenhouse at a temperature of about 20° C. and a relative atmospheric humidity of about 80% to promote the development of mildew pustules.
Evaluation is carried out 7 days after the inoculation. 0% means an efficacy which corresponds to that of the control, whereas an efficacy of 100% means that no infection is observed.

`N#Cc1ccccc1NC(=O)c1snc(Cl)c1Cl` [(I), 2′-cyano-3,4-dichloroisothiazole-5-carboxanilide] gave an Efficacy in % (Pyricularia; 10 g/10 acres, b: inoculation two weeks after treatment) of 12.6% and an Efficacy in % (Pyricularia; 20 g/10 acres, b: inoculation two weeks after treatment) of 75%.
`CCC1(C(=O)NC(C)c2ccc(Cl)cc2)C(C)C1(Cl)Cl` (stereo not shown) [(II), N-[1-(4-chlorophenyl)ethyl]-2,2-dichloro-1-ethyl-3-methylcyclopropane-carboxamide] showed an Efficacy in % (Pyricularia oryzae; application rate 50 g/ha) of 29% and an Efficacy in % (Pyricularia; 100 g/10 acres, a: inoculation one week after treatment) of 0%.
`CC(C)(C)C(O)(CCc1ccc(Cl)cc1)Cn1cncn1` (stereo not shown) [(IV-b)] was tested, and the Efficacy in % (Pyricularia oryzae; application rate 100 g/ha) was 0%.
For `OC(Cc1ccccc1Cl)(Cn1nc[nH]c1=S)C1(Cl)CC1` (stereo not shown) [(IV-c), Prothioconazole], the Efficacy in % (Pyricularia oryzae; application rate 100 g/ha) was 29%.
`CC(NC(=O)C(C#N)C(C)(C)C)c1ccc(Cl)cc1Cl` (stereo not shown) [(IX), diclocymet] was tested, and the Efficacy in % (Pyricularia; 10 g/10 acres, a: inoculation one week after treatment) was 37.5%, the Efficacy in % (Pyricularia; 20 g/10 acres, a: inoculation one week after treatment) was 83.2% and the Efficacy in % (Pyricularia; 100 g/10 acres, b: inoculation two weeks after treatment) was 27.8%.
With `O=C(Nc1ccccc1)N(Cc1ccc(Cl)cc1)C1CCCC1` [(V)] the Efficacy in % [1] was 0%.

Source: patent publication US8962578B2 (priority 2003, dated 2015)
